The results in this text go back to ChEMBL document CHEMBL3739426, “Synthesis and biological evaluation of novel 2-isoxazoline fused cyclopentane derivatives as potential antimicrobial and anticancer agents” (Medchemcomm, 2015).

Values after ≈ are worked out from the molar mass of the structure shown. Active and inactive are the calls of the source. Bounds are passed on as bounds.

One experiment concerns A549. Description: Cytotoxicity against human A549 cells after 48 hrs by MTT assay. The format is functional, cell-based. Conditions: A549, 48 h. For orientation: Tetrazolium dyes change colour on reduction, which living cells bring about.
The nature of experiment [1]: Cytotoxicity against human PC3 cells after 48 hrs by MTT assay. Conditions: PC-3, 48 h. It counts as functional, cell-based.
For the next experiment, the system named is Priestia megaterium. Briefly: Antimicrobial activity against Bacillus megaterium by cup plate diffusion method. The format is functional.
For the next experiment, the system named is Bacillus subtilis. Description: Antimicrobial activity against Bacillus subtilis by cup plate diffusion method. The format is functional.
The subject of another experiment is HeLa. Briefly: Cytotoxicity against human HeLa cells after 48 hrs by MTT assay. It counts as functional, cell-based.
For the next experiment, the system named is Candida albicans. Description: Antimicrobial activity against Candida albicans by cup plate diffusion method. It counts as functional.
Experiment [2] has as its system MCF7. Description: Cytotoxicity against human MCF7 cells after 48 hrs by MTT assay. The format is functional, cell-based. As to conditions: MCF7, 48 h.
A further experiment has as its system HT-29. Description: Cytotoxicity against human HT-29 cells after 48 hrs by MTT assay. It counts as functional, cell-based. As to conditions: HT-29, 48 h.
The test system of a further experiment is Pseudomonas sp. Briefly: Antimicrobial activity against Pseudomonas sp. by cup plate diffusion method. The format is functional.
In another experiment the test system is Escherichia coli. Description: Antimicrobial activity against Escherichia coli by cup plate diffusion method. It counts as functional.
The subject of experiment [3] is MCF7. Description: Cell cycle arrest in human MCF7 cells assessed as accumulation at G2/M phase at 10 ug/ml after 48 hrs using propidium iodide staining by flow cytometry analysis (reference value: 25.8%). It counts as functional. (In general: Flow cytometry measures light scatter and fluorescence of single cells or particles in a stream.)
The subject of experiment [4] is MCF7. Description: Induction of apoptosis in human MCF7 cells assessed early apoptotic cells at 10 ug/ml after 48 hrs using annexin V/propidium iodide staining by muse cell analyzer analysis (reference value: 6%). The format is functional.
For experiment [5], the system named is MCF7. Briefly: Induction of apoptosis in human MCF7 cells assessed as decrease of mitochondrial membrane potential after 12 hrs using JC-1 dye by fluorescence microscopic analysis. The format is functional, cell-based.
Experiment [6] has as its system MCF7. Briefly: Induction of apoptosis in human MCF7 cells assessed live cells at 10 ug/ml after 48 hrs using annexin V/propidium iodide staining by muse cell analyzer analysis (reference value: 81.07%). The format is functional.
Experiment [7] has as its system MCF7. Description: Cell cycle arrest in human MCF7 cells assessed as accumulation at S phase at 5 ug/ml after 48 hrs using propidium iodide staining by flow cytometry analysis (reference value: 12.7%). It counts as functional.
The test system of experiment [8] is MCF7. Description: Induction of apoptosis in human MCF7 cells assessed dead cells at 5 ug/ml after 48 hrs using annexin V/propidium iodide staining by muse cell analyzer analysis (reference value: 1.04%). It counts as functional.
Experiment [9] deals with MCF7. Description: Induction of apoptosis in human MCF7 cells assessed as formation of chromatin condensation at 10 ug/ml after 48 hrs using acridine orange and ethidium bromide staining by light microscopic analysis. It counts as functional, cell-based.
For experiment [10], the system named is MCF7. Description: Cell cycle arrest in human MCF7 cells assessed as accumulation at G0/G1 phase at 5 ug/ml after 48 hrs using propidium iodide staining by flow cytometry analysis (reference value: 47.3%). The format is functional.
The subject of experiment [11] is MCF7. Description: Cell cycle arrest in human MCF7 cells assessed as accumulation at G2/M phase at 5 ug/ml after 48 hrs using propidium iodide staining by flow cytometry analysis (reference value: 25.8%). The format is functional.
The test system of experiment [12] is MCF7. Briefly: Induction of apoptosis in human MCF7 cells assessed as formation of intact nuclei at 5 ug/ml after 48 hrs using acridine orange and ethidium bromide staining by light microscopic analysis. It counts as functional, cell-based.
Experiment [13] deals with MCF7. Description: Induction of apoptosis in human MCF7 cells assessed late apoptotic cells at 5 ug/ml after 48 hrs using annexin V/propidium iodide staining by muse cell analyzer analysis (reference value: 11.89%). It counts as functional.
Experiment [14] relates to MCF7. Description: Induction of apoptosis in human MCF7 cells assessed early apoptotic cells at 5 ug/ml after 48 hrs using annexin V/propidium iodide staining by muse cell analyzer analysis (reference value: 6%). It counts as functional.
Experiment [15] has as its system MCF7. Description: Induction of apoptosis in human MCF7 cells assessed dead cells at 10 ug/ml after 48 hrs using annexin V/propidium iodide staining by muse cell analyzer analysis (reference value: 1.04%). The format is functional.
Experiment [16] concerns MCF7. Description: Cell cycle arrest in human MCF7 cells assessed as accumulation at G0/G1 phase at 10 ug/ml after 48 hrs using propidium iodide staining by flow cytometry analysis (reference value: 47.3%). The format is functional.
In experiment [17] the test system is MCF7. Briefly: Induction of apoptosis in human MCF7 cells assessed as formation of cell membrane blebbing at 10 ug/ml after 48 hrs using acridine orange and ethidium bromide staining by light microscopic analysis. The format is functional, cell-based.
For experiment [18], the system named is MCF7. Description: Induction of apoptosis in human MCF7 cells assessed live cells at 5 ug/ml after 48 hrs using annexin V/propidium iodide staining by muse cell analyzer analysis (reference value: 81.07%). It counts as functional.
In experiment [19] the test system is MCF7. Description: Induction of apoptosis in human MCF7 cells assessed late apoptotic cells at 10 ug/ml after 48 hrs using annexin V/propidium iodide staining by muse cell analyzer analysis (reference value: 11.89%). It counts as functional.
For experiment [20], the system named is MCF7. Description: Induction of apoptosis in human MCF7 cells assessed as formation of nuclear fragmentation at 10 ug/ml after 48 hrs using acridine orange and ethidium bromide staining by light microscopic analysis. The format is functional, cell-based.
Experiment [21] deals with MCF7. Description: Cell cycle arrest in human MCF7 cells assessed as accumulation at S phase at 10 ug/ml after 48 hrs using propidium iodide staining by flow cytometry analysis (reference value: 12.7%). It counts as functional.
Experiment [22] has as its system MCF7. Description: Induction of apoptosis in human MCF7 cells assessed as formation of extremely condensed chromatin at 5 ug/ml after 48 hrs using acridine orange and ethidium bromide staining by light microscopic analysis. It counts as functional, cell-based.

As to `COC(=O)[C@H]1C[C@@H](C(=O)OC)[C@H]2ON=C(c3ccc(OC)c(OC)c3)[C@H]21`, the half-maximal inhibitory concentration (IC50) (in the experiment with A549; in experiment [1]; with HeLa; with MCF7 [2]; in the experiment with HT-29) was above 50 µg/mL in each case. Besides, the minimum inhibitory concentration (MIC) in the experiment with Priestia megaterium, against Bacillus subtilis, in the experiment with Candida albicans, in the experiment with Pseudomonas sp. and in the experiment on Escherichia coli was above 100 µg/mL in each case.

Take `OC[C@@H]1C[C@H](CO)[C@@H]2C(c3ccc4ccccc4c3)=NO[C@H]12`: the IC50 (in general, the concentration that inhibits the measured activity by half) in the experiment on A549 is above 50 µg/mL; in experiment [1], 48.4 µg/mL (≈ 163 µM); with HeLa it was 24.5 µg/mL (≈ 82.4 µM); in the experiment on MCF7 [2], 11.5 µg/mL (≈ 38.7 µM); in the experiment on HT-29 it was 14.3 µg/mL (≈ 48.1 µM). Also, the Activity was 22.6% in the experiment on MCF7 [3]; 48.32% in the experiment with MCF7 [4]; “Dose-dependent effect” with MCF7 [5]; 32.21% in the experiment with MCF7 [6]; 14.9% in the experiment on MCF7 [7]; 4.06% with MCF7 [8]. Further, the Activity with MCF7 [10] was determined as 44.7%; in the experiment on MCF7 [11], 24.8%; in the experiment on MCF7 [13], 15.91%; in the experiment with MCF7 [14], 24.94%; with MCF7 [15], 0.61%; in the experiment on MCF7 [16], 35.7%. The values for the Activity with MCF7 [18], in the experiment with MCF7 [19] and with MCF7 [21] were 55.08%, 18.85% and 27.5%, respectively. The minimal inhibitory concentration (MIC) (in general, the smallest concentration in the dilution series that meets the test's criterion for growth inhibition) with Priestia megaterium is 26 µg/mL (≈ 87.4 µM); with Bacillus subtilis it was 26 µg/mL (≈ 87.4 µM); with Candida albicans it was above 100 µg/mL; against Pseudomonas sp., above 100 µg/mL; in the experiment on Escherichia coli, above 100 µg/mL. For the same molecule, the outcome in the experiment with MCF7 [9], in the experiment on MCF7 [12], in the experiment on MCF7 [17], in the experiment with MCF7 [20] and in the experiment with MCF7 [22] was Active.

For the molecule `OC[C@@H]1C[C@H](CO)[C@@H]2C(c3ccc(F)cc3)=NO[C@H]12`, the IC50 in the experiment on A549 is 31.1 µg/mL (≈ 117 µM); in experiment [1], above 50 µg/mL; in the experiment on HeLa it was above 50 µg/mL; in the experiment on MCF7 [2] it was above 50 µg/mL; with HT-29, 17.8 µg/mL (≈ 67.1 µM). For the same molecule, the MIC against Priestia megaterium, in the experiment on Bacillus subtilis, in the experiment with Candida albicans, against Pseudomonas sp. and against Escherichia coli was above 100 µg/mL in each case.

`COc1ccc(C2=NO[C@H]3[C@@H]2[C@@H](C(=O)O)C[C@H]3C(=O)O)cc1OC`: the half-maximal inhibitory concentration (IC50) with A549 is above 50 µg/mL; in experiment [1], above 50 µg/mL; in the experiment on HeLa it was above 50 µg/mL; with MCF7 [2], above 50 µg/mL; in the experiment with HT-29 it was 40.6 µg/mL (≈ 121 µM). Besides, the minimal inhibitory concentration (MIC) against Priestia megaterium is above 100 µg/mL; against Bacillus subtilis, above 100 µg/mL; against Candida albicans, 81.6 µg/mL (≈ 243 µM); against Pseudomonas sp. it was 44.2 µg/mL (≈ 132 µM); against Escherichia coli, 88.4 µg/mL (≈ 264 µM).

`Cc1ccc(C2=NO[C@@H]3[C@H](CO)C[C@H](CO)[C@H]23)cc1`: the IC50 was above 50 µg/mL in the experiment on A549; 28 µg/mL (≈ 107 µM) in experiment [1]; 26.5 µg/mL (≈ 101 µM) in the experiment with HeLa; above 50 µg/mL in the experiment on MCF7 [2]; above 50 µg/mL in the experiment on HT-29. Moreover, the MIC against Priestia megaterium, in the experiment on Bacillus subtilis, against Candida albicans, in the experiment with Pseudomonas sp. and in the experiment on Escherichia coli was above 100 µg/mL in each case.

As to `COC(=O)[C@H]1C[C@@H](C(=O)OC)[C@H]2ON=C(c3ccc(F)cc3)[C@H]21`, the 50% inhibitory concentration (IC50) with A549 is above 50 µg/mL; in [1] it was above 50 µg/mL; in the experiment on HeLa, 20.1 µg/mL (≈ 62.6 µM); in the experiment on MCF7 [2], 39.4 µg/mL (≈ 123 µM); in the experiment with HT-29, above 50 µg/mL. Moreover, the MIC against Priestia megaterium, in the experiment with Bacillus subtilis, in the experiment on Candida albicans, in the experiment with Pseudomonas sp. and against Escherichia coli was above 100 µg/mL each time.

In the case of `O=C(O)[C@H]1C[C@@H](C(=O)O)[C@H]2ON=C(c3ccc4ccccc4c3)[C@H]21`, the 50% inhibitory concentration (IC50) in the experiment on A549 is above 50 µg/mL; in [1], above 50 µg/mL; in the experiment with HeLa, above 50 µg/mL; in the experiment with MCF7 [2], 31.8 µg/mL (≈ 97.7 µM); in the experiment with HT-29 it was 29.7 µg/mL (≈ 91.3 µM). Besides, the MIC with Priestia megaterium, with Bacillus subtilis, in the experiment on Candida albicans, with Pseudomonas sp. and against Escherichia coli was above 100 µg/mL in each case.

`O=C(O)[C@H]1C[C@@H](C(=O)O)[C@H]2ON=C(c3ccccc3Cl)[C@H]21`: the concentration for half-maximal inhibition (IC50) (in the experiment on A549; in experiment [1]; in the experiment with HeLa; in the experiment on MCF7 [2]; in the experiment with HT-29) was above 50 µg/mL throughout. Also, the minimum inhibitory concentration (MIC) with Priestia megaterium, in the experiment with Bacillus subtilis, in the experiment with Candida albicans, against Pseudomonas sp. and in the experiment with Escherichia coli was above 100 µg/mL throughout.

Take `COC(=O)[C@H]1C[C@@H](C(=O)OC)[C@H]2ON=C(c3ccc4ccccc4c3)[C@H]21`: the IC50 (in the experiment on A549; in [1]; in the experiment on HeLa; with MCF7 [2]; in the experiment with HT-29) was above 50 µg/mL each time. Further, the MIC with Priestia megaterium, in the experiment on Bacillus subtilis, against Candida albicans, against Pseudomonas sp. and in the experiment with Escherichia coli was above 100 µg/mL throughout.
